{
  "source": "paper PMC12176268",
  "about": "“Structural Features and Photophysical and Antiproliferative Properties of Me2N‑pbt-Cycloplatinated Complexes with Picolinate Ligands” (Inorganic Chemistry, 2025)",
  "test_system": "MDA-MB-231",
  "test": "MTT cell viability assay on MDA-MB-231 cells, dark and 450 nm irradiation",
  "format": "cell-based, human",
  "conditions": "for EC50: MTT",
  "description": "(C∧N) cyclometalated Pt(II) complexes have been previously reported to have strong antiproliferative activities when associated with phenanthroline-based, diphosphine, acyclic diamino carbenes, or picolinate ligands. In particular, (Me2N-pbt)-cyclometalated platinum complexes have been previously reported by some of us to have antiproliferative properties in the micromolar range on a panel of cancer cell lines, prompting us to investigate the anticancer properties of complexes 1–4 in dark conditions and, considering their high quantum yield (ϕΔ) of ^1O2 generation, under irradiation conditions. Due to the poor solubility of the complexes in an aqueous environment, complexes 1–4 were first dissolved in DMSO and diluted in the culture media to reach a final concentration of 1% DMSO when incubated with the cells. All complexes were screened against the so-called “triple-negative” breast cancer cell line MDA-MB-231, lung adenocarcinoma cell line A549, and the noncancerous breast cell line MCF-10A for 72 h in dark conditions and under 5 min irradiation at 450 nm (see Experimental Section for details). The irradiation time was kept short to prevent light-induced toxicity of the energetic wavelength observed at longer irradiation times (data not shown). The measurement of the effective concentration at 50% (EC50) was carried out using the classical MTT assay, and the data are provided in Table .\nIn dark conditions, we could notice a strong influence of substituents on the picolinate ligands. […] This can be correlated with its poor stability in the culture medium mentioned above, which might reduce its cellular uptake. […] However, in dark conditions, no particular selectivity for cancer cells could be observed with similar activity measured against the noncancerous cell line MCF-10A. For the “light” experiments, the cells were preincubated with the complexes for 4 h in the dark, irradiated at 450 nm for 5 min, and then put back in the dark until 72 h. The photoactivity index (PI) values, defined as the ratio between the EC50 in dark conditions and the EC50 after irradiation for each cell line, are shown in Figure .\nThe human lung adenocarcinoma cell line A549 and human breast cancer cell line MDA-MB-231 were cultivated in DMEM (Dulbecco’s modified Eagle’s medium) containing GlutaMax I supplemented with 10% FBS at 37 °C in a humidified atmosphere and 5% CO2. The noncancerous cell line MCF-10A was maintained in DMEM:F12 (1:1) cell culture media, 5% heat-inactivated horse serum, supplemented with HEPES (20 mM), L-glutamine (2 mM), epidermal growth factor (20 ng/mL), hydrocortisone (500 ng/mL), cholera toxin (100 ng/mL), and insulin (10 μg/mL). Cell viability was evaluated by using a colorimetric method based on the tetrazolium salt MTT [3-(4,5-dimethylthiazol-2-yl)-2,5-diphenyltetrazolium bromide], which is reduced by viable cells to yield purple formazan crystals. Cells were seeded in 96-well plates at a density of 40000 cells/mL (100 μL per well). Stock solutions were prepared in DMSO for complexes 1–4 and in water for cisplatin. […] For dark experiments, after overnight attachment, a dilution series of the compounds was added to the medium, and the cells were incubated for a further 72 h. For the irradiated experiments, after overnight attachment, a dilution series of the compounds was added to the medium, and the cells were preincubated for 4 h. The cells were then irradiated at 450 nm for 5 min with a Kessil Lamp (power: 3 mW/cm^2, 1.13 × 10^–8 Einstein/s at 20 cm distance between the light source and 96-well plate) and the incubation was continued until 72 h. After 72 h, the medium was removed and the cells were incubated with MTT solution in PBS (10 μL of 5 mg/mL) for 2–3 h. The formed purple formazan crystals were dissolved in 100 μL of DMSO by thorough shaking, and the absorbance at 580 nm was read using a microplate reader (FLUOstar OPTIMA, BMG Labtech). Each test was performed with at least 3 replicates and repeated at least 3 times. […]",
  "note": "Read-outs that look alike come from different tables or passages of the source.",
  "data": [
    {"substance": "[Pt(Me2N-pbt)(3-OH-pic-κN,O)] [Complex 3]", "values": [
      {"measurement": "EC50", "setting": "4 h preincubation, 5 min irradiation at 450 nm, then dark until 72 h, read-out: EC50 MDA-MB-231 light", "result": "220 ± 30", "unit": "nM"},
      {"measurement": "EC50", "setting": "72 h incubation at 37 °C, dark, read-out: EC50 MDA-MB-231 dark", "result": "2600 ± 800", "unit": "nM"},
      {"measurement": "reduction of the antiproliferative activity relative to 1, MDA-MB-231", "setting": "dark conditions", "result": "~5", "unit": "times"},
      {"measurement": "lower activity toward MDA-MB-231 cells compared to the noncancerous cells", "setting": "dark conditions, versus MCF-10A", "result": 2, "unit": "fold"},
      {"measurement": "activity on MDA-MB-231 compared to the noncancerous cell line", "setting": "upon irradiation (450 nm, 5 min), versus MCF-10A", "result": "twice as active"}
    ]}
  ]
}
